Results on 2 molecules are retold here after PMC8482274, “Inadequate Cerebrospinal Fluid Concentrations of Available Salvage Agents Further Impedes the Optimal Treatment of Multidrug-Resistant Enterococcus faecium Meningitis and Bacteremia” (Infectious Disease Reports, 2021).

For one data set, the system named is VREf isolates. Briefly: microbe, parasite or virus in culture. The conditions noted are these: modal MIC of triplicate, CLSI guidelines.
Data set [1] is described as follows: CSF drug concentrations from day 57 lumbar puncture by LC-MS/MS. The note with it: one patient, systemic dosing at steady state, LLOQ 0.001 mg/L, mean of two CSF tubes, time after last dose: gentamicin 77:30, oritavancin 46:54, tigecycline 8:27, tedizolid 8:25, quinupristin/dalfopristin 2:00 h:m. Here is the method:
(§1) CSF samples were immediately frozen at −80 °C and shipped overnight on dry ice. […] Results are presented as the mean (±SD) of the two measured CSF concentrations. Additionally, estimated corresponding unbound plasma concentrations at the time of CSF collection were extrapolated for each agent from published pharmacokinetic data in order to establish an estimate of the degree of CSF/plasma penetration. This % CSF/plasma penetration was then utilized to predict the maximum post-dose CSF concentration on the basis of the peak free plasma concentration (fCmax) and the time of fCmax (Tmax) of each agent. Finally, these predictions were evaluated against published data, all of which were restricted to animal studies except for tigecycline.

Data set [2] is described as follows: Estimated unbound plasma concentration, CSF/plasma penetration and projected maximum CSF concentration extrapolated from published pharmacokinetic data. The conditions noted are these: for CSF/plasma ratio: this patient. Here is the method: as §1
In data set [3] the test system is VREf isolate cultured from the CSF on hospital day 33. As to the kind of experiment: Time-kill experiments. It is filed as cell-based, Enterococcus faecium. The note with it: at mean measured CSF concentration; triplicate.
Method: Next, the 5 drugs were tested in combination at their respective extrapolated maximal CSF concentration as described.
Details of data set [4]: method as in PMID 11408247. The conditions noted are these: animal study; cited from earlier work.
For data set [5] the following is noted: cited from earlier work. The source says:
Almost exactly 2 days had elapsed between the time of the patient’s last oritavancin dose and the time of CSF collection.

On the set-up of data set [6]: method as in PMID 31295511. The conditions noted are these: average in uninfected rats; cited from earlier work.
Details of data set [7]: method as in PMID 16982782, PMID 17043116, PMID 21585240, PMID 25216547. The note with it: cited from earlier work.

Like-named read-outs stand apart in the source and are kept apart here.

As for `CN[C@H](CC(C)C)C(=O)N[C@H]1C(=O)N[C@@H](CC(N)=O)C(=O)N[C@H]2C(=O)N[C@H]3C(=O)N[C@H](C(=O)N[C@H](C(=O)O)c4cc(O)cc(O)c4-c4cc3ccc4O)[C@H](O[C@H]3C[C@](C)(N)[C@@H](O)[C@H](C)O3)c3ccc(c(Cl)c3)Oc3cc2cc(c3O[C@@H]2O[C@H](CO)[C@@H](O)[C@H](O)[C@H]2O[C@H]2C[C@](C)(NCc3ccc(-c4ccc(Cl)cc4)cc3)[C@@H](O)[C@H](C)O2)Oc2ccc(cc2Cl)[C@H]1O` [Oritavancin], the MIC was found to be 0.25 µg/mL with VREf isolates (VREf isolate from CSF, hospital day 33); 0.25 µg/mL in the data set on VREf isolates (VREf isolate from CSF, hospital day 57); 0.25 µg/mL in the data set on VREf isolates (VREf isolate from blood, hospital day 35); 0.25 µg/mL with VREf isolates (VREf isolate from blood, hospital day 52). Also, the “Mean (±SD) Measured CSF Concentration” value in data set [1] came to 0.013 ± 0.005 mg/L. Besides, the “projected maximal CSF concentration at plasma Tmax” value in data set [2] (point estimate) is on record as 0.014 mg/L. In data set [2] (point estimate), the CSF/plasma ratio is reported as 0.07%. Besides, in data set [3], the “bacterial growth (increase) at 24 h compared to the starting inoculum” value is recorded as 0.69 log10 CFU/mL. For the same molecule, the “Published % CSF/Plasma Penetration” value in data set [4] was 1–5 [26] %. In addition, the fCmax in data set [5] (plasma, after a 1200 mg dose, published pharmacokinetic data, ref not given) was 20.7 mg/L. The half-life (commonly how long it takes for the measured level to halve) in data set [5] (plasma, published pharmacokinetic data, ref not given) was 245 h.
On to `Cn1nnc(-c2ccc(-c3ccc(N4C[C@H](CO)OC4=O)cc3F)cn2)n1` [Tedizolid], for which the MIC is 2 µg/mL with VREf isolates (Enterococcus faecium, VREf isolate from CSF, hospital day 33); 2 µg/mL in the data set with VREf isolates (Enterococcus faecium, VREf isolate from CSF, hospital day 57); 2 µg/mL with VREf isolates (Enterococcus faecium, VREf isolate from blood, hospital day 35); 2 µg/mL with VREf isolates (Enterococcus faecium, VREf isolate from blood, hospital day 52). Also, the “projected maximal CSF concentration at plasma Tmax” value in data set [2] (in vivo) is recorded as “roughly 0.3 mg/L”. Besides, in data set [2] (point estimate), the CSF/plasma ratio result is on record as “approximately 50%”. The “Published % CSF/Plasma Penetration” value in data set [6] was 2.2 [16] %. Further, the half-life in data set [5] (in vivo, iv) is 12 h. Further, the “steady-state plasma fCmax” value in data set [5] (in vivo, iv) was 0.6 mg/L. Further, the protein binding in data set [7] is given as 80%.
